Measured values: PubChem BioAssay (NCI)
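All cell lines were grown in 96-well plates and treated with compound for 48 hours. Definition used: TGI = concentration required for complete inhibition of growth.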

What was measured:
Experiment in all cases: inhibition of tumour cell growth, NCI panel, 48 h
HOP-92 NSCLC = tested on: HOP-92 NSCLC
DU-145 prostate = tested on: DU-145 prostate
HT29 colon = tested on: HT29 colon
SK-MEL-28 melanoma = tested on: SK-MEL-28 melanoma
HCC-2998 colon = tested on: HCC-2998 colon
CCRF-CEM leukemia = tested on: CCRF-CEM leukemia
MCF7 breast = tested on: MCF7 breast
786-0 renal = tested on: 786-0 renal
SNB-75 CNS = tested on: SNB-75 CNS
OVCAR-3 ovarian = tested on: OVCAR-3 ovarian

CN(C)CC1CCC/C(=C\c2ccccc2)C1=O (stereo not drawn)
TGI (HOP-92 NSCLC): 8.26 µM | TGI (DU-145 prostate): 28.6 µM | TGI (HT29 colon): 3.18 µM | TGI (SK-MEL-28 melanoma): 6.04 µM | TGI (HCC-2998 colon): 29 µM | TGI (CCRF-CEM leukemia): > 100 µM | TGI (MCF7 breast): 2.18 µM | TGI (786-0 renal): 6.9 µM | TGI (SNB-75 CNS): 26.7 µM | TGI (OVCAR-3 ovarian): 3.75 µM

COc1ccc2c(c1OC)C(=O)N/C2=C\c1c(CCN(C)C)cc2c(c1OC)OCO2
TGI (HOP-92 NSCLC): > 100 µM | TGI (DU-145 prostate): > 100 µM | TGI (HT29 colon): > 100 µM | TGI (SK-MEL-28 melanoma): > 100 µM | TGI (HCC-2998 colon): > 100 µM | TGI (CCRF-CEM leukemia): > 100 µM | TGI (MCF7 breast): > 100 µM | TGI (786-0 renal): > 100 µM | TGI (SNB-75 CNS): > 100 µM | TGI (OVCAR-3 ovarian): > 100 µM

CCOC(=O)C1(N)CC1
TGI (HOP-92 NSCLC): > 100 µM | TGI (DU-145 prostate): > 100 µM | TGI (HT29 colon): > 100 µM | TGI (SK-MEL-28 melanoma): > 100 µM | TGI (HCC-2998 colon): > 100 µM | TGI (CCRF-CEM leukemia): > 100 µM | TGI (MCF7 breast): > 100 µM | TGI (786-0 renal): > 100 µM | TGI (SNB-75 CNS): > 100 µM | TGI (OVCAR-3 ovarian): > 100 µM

CCNc1nnc(-c2ccccc2Nc2ccccc2-c2nnc(NCC)s2)s1
TGI (HOP-92 NSCLC): 54.2 µM | TGI (DU-145 prostate): 40.1 µM | TGI (HT29 colon): 60.5 µM | TGI (SK-MEL-28 melanoma): 55.2 µM | TGI (HCC-2998 colon): 27.8 µM | TGI (CCRF-CEM leukemia): 31.4 µM | TGI (MCF7 breast): 29.7 µM | TGI (786-0 renal): 17 µM | TGI (SNB-75 CNS): > 87.9 µM | TGI (OVCAR-3 ovarian): > 100 µM

CN(C)c1ccc(/C=C(\NC(=O)c2ccccc2)C(=O)Nc2cccc(C(=O)NCCCO)c2)cc1
TGI (HOP-92 NSCLC): > 100 µM | TGI (DU-145 prostate): > 100 µM | TGI (HT29 colon): > 100 µM | TGI (SK-MEL-28 melanoma): > 100 µM | TGI (HCC-2998 colon): > 100 µM | TGI (CCRF-CEM leukemia): > 100 µM | TGI (MCF7 breast): > 100 µM | TGI (786-0 renal): > 100 µM | TGI (SNB-75 CNS): > 100 µM | TGI (OVCAR-3 ovarian): > 100 µM

COc1ccc(-c2nc3c(C(=O)NCCN(C)C)cccc3c3ccccc23)cc1
TGI (HOP-92 NSCLC): 12.3 µM | TGI (DU-145 prostate): 17.4 µM | TGI (HT29 colon): 7.78 µM | TGI (SK-MEL-28 melanoma): 3.71 µM | TGI (HCC-2998 colon): 3.85 µM | TGI (CCRF-CEM leukemia): 10.3 µM | TGI (MCF7 breast): 8.65 µM | TGI (786-0 renal): 6.86 µM | TGI (SNB-75 CNS): 17.6 µM | TGI (OVCAR-3 ovarian): 16.6 µM

CN1CC2=C(NC(=S)NC2c2ccccc2Cl)/C(=C/c2ccccc2Cl)C1 (stereo not drawn)
TGI (HOP-92 NSCLC): 99.1 µM | TGI (DU-145 prostate): > 100 µM | TGI (HT29 colon): > 100 µM | TGI (SK-MEL-28 melanoma): > 100 µM | TGI (HCC-2998 colon): > 100 µM | TGI (CCRF-CEM leukemia): > 100 µM | TGI (MCF7 breast): > 100 µM | TGI (786-0 renal): > 100 µM | TGI (SNB-75 CNS): 23.8 µM | TGI (OVCAR-3 ovarian): > 100 µM

Cc1ccsc1C(=S)Nc1ccc(Cl)c(/C=N/OC(C)C)c1
TGI (HOP-92 NSCLC): > 100 µM | TGI (DU-145 prostate): > 100 µM | TGI (HT29 colon): > 100 µM | TGI (SK-MEL-28 melanoma): > 100 µM | TGI (HCC-2998 colon): 64.3 µM | TGI (CCRF-CEM leukemia): > 100 µM | TGI (MCF7 breast): 62.6 µM | TGI (786-0 renal): > 100 µM | TGI (SNB-75 CNS): > 100 µM | TGI (OVCAR-3 ovarian): > 100 µM

O=S(=O)(c1cc(Cl)ccc1Cl)N1CCN(c2cccc(Cl)c2)CC1
TGI (HOP-92 NSCLC): > 100 µM | TGI (DU-145 prostate): > 100 µM | TGI (HT29 colon): > 100 µM | TGI (SK-MEL-28 melanoma): > 100 µM | TGI (HCC-2998 colon): > 100 µM | TGI (CCRF-CEM leukemia): > 100 µM | TGI (MCF7 breast): > 100 µM | TGI (786-0 renal): > 100 µM | TGI (SNB-75 CNS): > 100 µM | TGI (OVCAR-3 ovarian): > 100 µM

Cc1ccc(C(=O)Oc2ccc(/C=C3\CCC/C(=C\c4ccc(OC(=O)c5ccc(C)cc5)cc4)C3=O)cc2)cc1
TGI (HOP-92 NSCLC): > 100 µM | TGI (DU-145 prostate): > 100 µM | TGI (HT29 colon): > 100 µM | TGI (SK-MEL-28 melanoma): > 100 µM | TGI (HCC-2998 colon): > 100 µM | TGI (CCRF-CEM leukemia): > 100 µM | TGI (MCF7 breast): > 100 µM | TGI (786-0 renal): > 100 µM | TGI (SNB-75 CNS): > 100 µM | TGI (OVCAR-3 ovarian): > 100 µM

O=C1[C@@H](O)[C@@H]2CCCC[C@@]23CCCN13
TGI (HOP-92 NSCLC): > 100 µM | TGI (DU-145 prostate): > 100 µM | TGI (HT29 colon): > 100 µM | TGI (SK-MEL-28 melanoma): > 100 µM | TGI (HCC-2998 colon): > 100 µM | TGI (CCRF-CEM leukemia): > 100 µM | TGI (MCF7 breast): > 100 µM | TGI (786-0 renal): > 100 µM | TGI (SNB-75 CNS): > 100 µM

CCCC(=O)OC[n+]1ccc(-c2c(COC(=O)NC(C)C)c(COC(=O)NC(C)C)c3n2CCC3)cc1
TGI (HOP-92 NSCLC): > 100 µM | TGI (DU-145 prostate): > 100 µM | TGI (HT29 colon): > 100 µM | TGI (SK-MEL-28 melanoma): > 100 µM | TGI (HCC-2998 colon): > 100 µM | TGI (CCRF-CEM leukemia): > 100 µM | TGI (MCF7 breast): > 100 µM | TGI (786-0 renal): > 100 µM | TGI (SNB-75 CNS): > 100 µM | TGI (OVCAR-3 ovarian): > 100 µM

CCC12C=CCN3CCC4(c5cc(C(c6ccc(OC)cc6)C6Cc7ccccc7N6)c(OC)cc5N(C)C4C(O)(C(=O)OC)C1O)C32 (stereo not drawn)
TGI (HOP-92 NSCLC): 8.14 µM | TGI (DU-145 prostate): > 100 µM | TGI (HT29 colon): > 100 µM | TGI (SK-MEL-28 melanoma): > 100 µM | TGI (HCC-2998 colon): 57.5 µM | TGI (CCRF-CEM leukemia): 16.6 µM | TGI (MCF7 breast): 28.3 µM | TGI (786-0 renal): > 100 µM | TGI (SNB-75 CNS): 33.7 µM | TGI (OVCAR-3 ovarian): 94.9 µM

Cc1ccccc1Nc1nc(NNC(=O)Cc2ccccc2)nc(NNC(=O)c2ccncc2)n1
TGI (HOP-92 NSCLC): > 10 µM | TGI (DU-145 prostate): > 10 µM | TGI (HT29 colon): > 10 µM | TGI (SK-MEL-28 melanoma): > 10 µM | TGI (HCC-2998 colon): > 10 µM | TGI (CCRF-CEM leukemia): > 10 µM | TGI (MCF7 breast): > 10 µM | TGI (786-0 renal): > 10 µM | TGI (SNB-75 CNS): > 10 µM

CC(=O)NC1COC(COC(=O)CCCCCCCCCCNC(=O)c2ccc([N+](=O)[O-])c3c(=O)c4ccccc4[nH]c23)C(O)C1OC(C)C(=O)NC(C(=O)NC(CCC(N)=O)C(=O)OCc1ccccc1)C(C)C (stereo not drawn)
TGI (HOP-92 NSCLC): 31.5 µM | TGI (DU-145 prostate): 12.3 µM | TGI (HT29 colon): 22.2 µM | TGI (SK-MEL-28 melanoma): 41.7 µM | TGI (HCC-2998 colon): 14.3 µM | TGI (CCRF-CEM leukemia): 62.7 µM | TGI (MCF7 breast): 14.8 µM | TGI (786-0 renal): > 58.6 µM | TGI (SNB-75 CNS): 55.6 µM | TGI (OVCAR-3 ovarian): 9.57 µM

CS(=O)(=O)O[C@H]1[C@H](O)c2ccccc2[C@@H]1N=[N+]=[N-]
TGI (HOP-92 NSCLC): > 100 µM | TGI (DU-145 prostate): > 100 µM | TGI (HT29 colon): > 100 µM | TGI (SK-MEL-28 melanoma): > 100 µM | TGI (HCC-2998 colon): > 100 µM | TGI (CCRF-CEM leukemia): > 100 µM | TGI (MCF7 breast): > 100 µM | TGI (786-0 renal): > 100 µM | TGI (SNB-75 CNS): > 100 µM | TGI (OVCAR-3 ovarian): > 100 µM
